Emax and EC50 data for four molecules are collected here from patent publication US20220387608A1, “ADRENOMEDULLIN-ANALOGUES FOR LONG-TERM STABILIZATION AND THEIR USE” (Bayer Aktiengesellschaft, priority 2019, published 2022).

Positions of bridges follow the written chain, without caps; N, C: chain ends. Non-standard residues stand in square brackets, D forms with d. Residues, ends and D or L forms follow the SMILES beside them. PEG4 = NCCOCCOCCOCCOCCC(=O)O; AEEEA = NCCOCCOCCOCC(=O)O; PEG3 = NCCOCCOCCOCCC(=O)O

The test deals with T1, AM1R (Homo sapiens, UniProt O60895+Q16602).
T1 construct: EYFP; ECFP; expressed in transfected cells; host or cells: HEK-293 (transient co-transfection)
Briefly: Activity determination in vitro: cAMP/CRE-luciferase reporter assay in HEK293 cells transiently co-transfected with CLR and RAMP2. The format is cell-based. As to conditions: for Emax: HEK293, normalized to [G14]ADM(14-52); for EC50: HEK293 with CLR/RAMP2, CRE-luciferase, 3 h stimulation. How it is done: (1a) Activity Determination of Adrenomedullin Analogues in vitro
Cell Culture HEK-293 cells (human embryonic kidney cells) were cultured in Ham's F-12/DMEM (1/1; v/v) containing 15% FCS under humidified atmosphere at 37° C. and 5% CO2 in 75 cm^2 cell culture flasks.
Cells were cultured in 75 cm^2 flasks to 70-80% confluency. 45 μl Metafectene® Pro was diluted in 900 ρl Ham's F-12/DMEM (1/1; v/v) and incubated for 20 min at room temperature. 9 μg plasmid containing DNA of CLR fused to EYFP and 3 μg plasmid containing DNA of RAMP2 fused to ECFP were dissolved in 900 μl Ham's F-12/DMEM (1/1; v/v). The plasmid solution was mixed with the Metafectene® Pro solution and incubated for 25 min at room temperature. Medium was removed from the cells and replaced by 6 m1 Ham's F-12/DMEM (1/1; v/v) containing 15% FCS. After addition of transfection solution the cells were incubated for 3 h under humidified atmosphere at 37° C. and 5% CO2. For the second transfection 45 μl Metafectene® Pro was diluted in 900 μl Ham's F-12/DMEM (1/1; v/v) and incubated for 20 min at room temperature. 12 μg of pGL4.29[Luc2P/CRE/Hygro] plasmid containing DNA for the luciferase reporter gene luc2P (with CRE promotor region) were dissolved in 900 μl Ham's F-12/DMEM (1/1; v/v). The plasmid solution was mixed with the Metafectene® Pro solution and incubated for 25 min at room temperature. Medium was removed from the cells and replaced by 6 m1 Ham's F-12/DMEM (1/1; v/v) containing 15% FCS. After addition of transfection solution, the cells were incubated under humidified atmosphere at 37° C. and 5% CO2 over night.
For coating of 96-well-plates, 50 μl of a poly-D-lysine solution in DPBS (0.1 mg/ml) were pipetted in each well and incubated for 40 min. After removal of poly-D-lysine, each well was washed with 50 μl DPBS. Transiently transfected cells were detached from the cell culture flask by removal of the medium, 2-fold washing with 5 m1 DPBS and resuspending in 40 m1 Ham's F-12/DMEM (1/1; v/v) containing 15% FCS. 90,000 to 120,000 cells in 150 μl Ham's F-12/DMEM (1/1; v/v) containing 15% FCS were seeded per well and the plates were incubated under humidified atmosphere at 37° C. and 5% CO2 over night.
For each ligand, a serial dilution with eight different concentrations was prepared using Ham's F^12/DMEM (1/1; v/v). Before stimulation, the medium on the cells was replaced by 100 μl Ham's F^12/DMEM (1/1; v/v) and the plates were incubated for 1 h under humidified atmosphere at 37° C. and 5% CO2. For stimulation, the medium was removed and the cells were incubated for 3 h in 80 μl of ligand-solution under humidified atmosphere at 37° C. and 5% CO2. In addition 80 μl of a 5 μM forskolin solution in Ham's F-12/DMEM (1/1; v/v) was used as a positive control and 80 μl of Ham's F-12/DMEM (1/1; v/v) as a negative control. Each concentration and the controls were tested as triplicates.
After 3 h of stimulation, the solutions were removed and the cells were washed with 50 μl of Ham's F-12/DMEM (1/1; v/v) perwell. After 10 m incubation in 30 μl of Ham's F-12/DMEM (1/1; v/v) at room temperature, 30 μl of luciferase-solution (ONE-Glo™ Luciferase Assay System) was added and the luminescence was directly measured using an Infinite M200 (Tecan).
Data analysis of the luminescence measurement was carried out with GraphPad Prism 5. Therefore, the measured luminescence values of each plate were first corrected on the base of the respective average of forskolin stimulation. Afterwards they were normalized to [G14]ADM(14-52), which was used as standard peptide in every assay. After correction and normalization, data was analyzed using non-linear regression giving dose-response curves for each tested ligand.
(Reporter assays use an easily measured gene product as a stand-in for the process of interest.)

T1 sequence (Q16602 23-461): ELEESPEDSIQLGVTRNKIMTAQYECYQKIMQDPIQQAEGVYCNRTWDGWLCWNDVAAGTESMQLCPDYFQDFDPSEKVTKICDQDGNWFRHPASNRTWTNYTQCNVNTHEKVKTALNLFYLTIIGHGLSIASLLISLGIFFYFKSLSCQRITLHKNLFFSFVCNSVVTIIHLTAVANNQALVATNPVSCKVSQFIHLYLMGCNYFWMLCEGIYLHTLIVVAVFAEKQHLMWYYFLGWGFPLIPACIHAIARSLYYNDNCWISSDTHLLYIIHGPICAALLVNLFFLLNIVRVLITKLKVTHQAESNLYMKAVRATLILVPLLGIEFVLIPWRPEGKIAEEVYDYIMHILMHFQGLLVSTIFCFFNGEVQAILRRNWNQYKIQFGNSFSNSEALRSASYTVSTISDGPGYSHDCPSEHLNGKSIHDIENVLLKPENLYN
T1 sequence (O60895 43-175): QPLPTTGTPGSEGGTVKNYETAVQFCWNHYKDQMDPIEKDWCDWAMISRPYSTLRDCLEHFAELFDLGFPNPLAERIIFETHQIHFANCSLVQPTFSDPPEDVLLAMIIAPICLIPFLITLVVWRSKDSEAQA

What is called Emax is the size of the effect at its maximum, as opposed to the concentration needed. By EC50 is commonly meant the concentration needed to bring the measured effect to its halfway point. A low value points to a more potent agent. `CC[C@H](C)[C@H](NC(=O)[C@H](CCC(N)=O)NC(=O)[C@H](Cc1c[nH]cn1)NC(=O)[C@H](C)NC(=O)[C@H](CC(C)C)NC(=O)[C@H](CCCCN)NC(=O)[C@H](CCC(N)=O)NC(=O)[C@@H](NC(=O)[C@@H](NC(=O)[C@@H]1CSSC[C@H](NC(=O)CNC(=O)CN)C(=O)N[C@@H](CCCNC(=N)N)C(=O)N[C@@H](Cc2ccccc2)C(=O)NCC(=O)N[C@@H]([C@@H](C)O)C(=O)N1)[C@@H](C)O)C(C)C)C(=O)N[C@@H](Cc1ccc(O)cc1)C(=O)N[C@@H](CCC(N)=O)C(=O)N[C@@H](Cc1ccccc1)C(=O)N[C@H](C(=O)NCCOCCOCCOCC(=O)N[C@@H](CC(=O)O)C(=O)N[C@@H](CC(N)=O)C(=O)N[C@H](C(=O)N[C@@H](C)C(=O)N1CCC[C@H]1C(=O)N[C@@H](CCCNC(=N)N)C(=O)N[C@@H](CO)C(=O)N[C@@H](CCCCN)C(=O)N[C@H](C(=O)N[C@@H](CO)C(=O)N1CCC[C@H]1C(=O)N[C@@H](CCC(N)=O)C(=O)NCC(=O)N[C@@H](Cc1ccc(O)cc1)C(N)=O)[C@@H](C)CC)C(C)C)[C@@H](C)O` [Example 6, ((4R,7S,13S,16S,19R)-19-(2-(2-aminoacetamido)acetamido)-13-benzyl-16-(3-guanidinopropyl)-7-((R)-1-hydroxyethyl)-6,9,12,15,18-pentaoxo-1,2-dithia-5,8,11,14,17-pentaazacycloicosane-4-carbonyl)-L-threonyl-ADM(23-34)-(2-(2-(2-(2-(k2-azaneyl)ethoxy)ethoxy)ethoxy)acetyl)-L-aspartyl-ADM(40-52)] (H-GGCRFGTCTVQKLAHQIYQFT[AEEEA]DNVAPRSKISPQGY-NH2; disulfide 3-8): the Emax came out at 95 ± 7% and the EC50 worked out at 21 nM.

For `CC[C@H](C)[C@H](NC(=O)[C@H](CCC(N)=O)NC(=O)[C@H](Cc1c[nH]cn1)NC(=O)[C@H](C)NC(=O)[C@H](CC(C)C)NC(=O)[C@H](CCCCN)NC(=O)[C@H](CCC(N)=O)NC(=O)[C@@H](NC(=O)[C@@H](NC(=O)[C@@H]1CSSC[C@H](NC(=O)CNC(=O)CN)C(=O)N[C@@H](CCCNC(=N)N)C(=O)N[C@@H](Cc2ccccc2)C(=O)NCC(=O)N[C@@H]([C@@H](C)O)C(=O)N1)[C@@H](C)O)C(C)C)C(=O)N[C@@H](Cc1ccc(O)cc1)C(=O)N[C@@H](CCC(N)=O)C(=O)N[C@@H](Cc1ccccc1)C(=O)N[C@H](C(=O)NCCOCCOCCOCCC(=O)N[C@@H](CC(=O)O)C(=O)N[C@@H](CC(N)=O)C(=O)N[C@H](C(=O)N[C@@H](C)C(=O)N1CCC[C@H]1C(=O)N[C@@H](CCCNC(=N)N)C(=O)N[C@@H](CO)C(=O)N[C@@H](CCCCN)C(=O)N[C@H](C(=O)N[C@@H](CO)C(=O)N1CCC[C@H]1C(=O)N[C@@H](CCC(N)=O)C(=O)NCC(=O)N[C@@H](Cc1ccc(O)cc1)C(N)=O)[C@@H](C)CC)C(C)C)[C@@H](C)O` [Example 7, ((4R,7S,13S,16S,19R)-19-(2-(2-aminoacetamido)acetamido)-13-benzyl-16-(3-guanidinopropyl)-7-((R)-1-hydroxyethyl)-6,9,12,15,18-pentaoxo-1,2-dithia-5,8,11,14,17-pentaazacycloicosane-4-carbonyl)-L-threonyl-ADM(23-34)-(3-(2-(2-(2-(λ^2-azaneyl)ethoxy)ethoxy)ethoxy)propanoyl)-L-aspartyl-ADM(40-52)] (H-GGCRFGTCTVQKLAHQIYQFT[PEG3]DNVAPRSKISPQGY-NH2; disulfide 3-8), the Emax came to 103 ± 4% and the response was half-maximal at 13 nM (EC50).

In the case of `CC[C@H](C)[C@H](NC(=O)[C@H](CCC(N)=O)NC(=O)[C@H](Cc1c[nH]cn1)NC(=O)[C@H](C)NC(=O)[C@H](CC(C)C)NC(=O)[C@H](CCCCN)NC(=O)[C@H](CCC(N)=O)NC(=O)[C@@H](NC(=O)[C@@H](NC(=O)[C@@H]1CSSC[C@H](NC(=O)CNC(=O)CN)C(=O)N[C@@H](CCCNC(=N)N)C(=O)N[C@@H](Cc2ccccc2)C(=O)NCC(=O)N[C@@H]([C@@H](C)O)C(=O)N1)[C@@H](C)O)C(C)C)C(=O)N[C@@H](Cc1ccc(O)cc1)C(=O)N[C@@H](CCC(N)=O)C(=O)N[C@@H](Cc1ccccc1)C(=O)N[C@H](C(=O)NCCOCCOCCOCCOCCC(=O)N[C@@H](CC(N)=O)C(=O)N[C@H](C(=O)N[C@@H](C)C(=O)N1CCC[C@H]1C(=O)N[C@@H](CCCNC(=N)N)C(=O)N[C@@H](CO)C(=O)N[C@@H](CCCCN)C(=O)N[C@H](C(=O)N[C@@H](CO)C(=O)N1CCC[C@H]1C(=O)N[C@@H](CCC(N)=O)C(=O)NCC(=O)N[C@@H](Cc1ccc(O)cc1)C(N)=O)[C@@H](C)CC)C(C)C)[C@@H](C)O` [Example 8, ((4R,7S,13S,16S,19R)-19-(2-(2-aminoacetamido)acetamido)-13-benzyl-16-(3-guanidinopropyl)-7-((R)-1-hydroxyethyl)-6,9,12,15,18-pentaoxo-1,2-dithia-5,8,11,14,17-pentaazacycloicosane-4-carbonyl)-L-threonyl-ADM(23-34)-(1-(λ^2-azaneyl)-3,6,9,12-tetraoxapentadecan-15-oyl)-L-asparagyl-ADM(41-52)] (H-GGCRFGTCTVQKLAHQIYQFT[PEG4]NVAPRSKISPQGY-NH2; disulfide 3-8), the Emax came out at 95 ± 3% and the half-maximal effective concentration (EC50) is 16 nM.

Molecule `CC[C@H](C)[C@H](NC(=O)[C@H](CCC(N)=O)NC(=O)[C@H](Cc1c[nH]cn1)NC(=O)[C@H](C)NC(=O)[C@H](CC(C)C)NC(=O)[C@H](CCCCN)NC(=O)[C@H](CCC(N)=O)NC(=O)[C@@H](NC(=O)[C@@H](NC(=O)[C@@H]1CSSC[C@H](NC(=O)CNC(=O)CN)C(=O)N[C@@H](CCCNC(=N)N)C(=O)N[C@@H](Cc2ccccc2)C(=O)NCC(=O)N[C@@H]([C@@H](C)O)C(=O)N1)[C@@H](C)O)C(C)C)C(=O)N[C@@H](Cc1ccc(O)cc1)C(=O)N[C@@H](CCC(N)=O)C(=O)N[C@@H](Cc1ccccc1)C(=O)N[C@H](C(=O)N[C@@H](CC(=O)O)C(=O)NCCOCCOCCOCCC(=O)N[C@@H](CC(N)=O)C(=O)N[C@H](C(=O)N[C@@H](C)C(=O)N1CCC[C@H]1C(=O)N[C@@H](CCCNC(=N)N)C(=O)N[C@@H](CO)C(=O)N[C@@H](CCCCN)C(=O)N[C@H](C(=O)N[C@@H](CO)C(=O)N1CCC[C@H]1C(=O)N[C@@H](CCC(N)=O)C(=O)NCC(=O)N[C@@H](Cc1ccc(O)cc1)C(N)=O)[C@@H](C)CC)C(C)C)[C@@H](C)O` [Example 9, ((4R,7S,13S,16S,19R)-19-(2-(2-aminoacetamido)acetamido)-13-benzyl-16-(3-guanidinopropyl)-7-((R)-1-hydroxyethyl)-6,9,12,15,18-pentaoxo-1,2-dithia-5,8,11,14,17-pentaazacycloicosane-4-carbonyl)-L-threonyl-ADM(23-35)-(3-(2-(2-(2-(λ^2-azaneyl)ethoxy)ethoxy)ethoxy)propanoyl)-L-asparagyl-ADM(41-52)] (H-GGCRFGTCTVQKLAHQIYQFTD[PEG3]NVAPRSKISPQGY-NH2; disulfide 3-8) showed an Emax of 87 ± 4% and an EC50 of 49 nM.
